# pIC50: −log10 of the molar value. Several values for one entry are separate records, joined by “and”; a condition that tells them apart may be missing. Equal entries are not always repeated.
# Biological target: T1, Recombinant human Ku heterodimer (Homo sapiens, UniProt P12956+P13010)
# T1 construct: made in house; host or cells: insect cells infected with recombinant baculovirus
# Assay: Ku-DNA binding assay
# Settings: IC50 (concentration that inhibits 50% of the binding activity), titration into Ku-DNA binding reactions (FIG. 1, FIG. 2)
# Description: Ku is a DNA end-binding protein that is essential for the repair of DNA double strand breaks via the NHEJ pathway. The mechanism of DNA binding by Ku is via a toroid structure that encircles double-stranded DNA from a terminus.
# T1 sequence (P12956 whole entry): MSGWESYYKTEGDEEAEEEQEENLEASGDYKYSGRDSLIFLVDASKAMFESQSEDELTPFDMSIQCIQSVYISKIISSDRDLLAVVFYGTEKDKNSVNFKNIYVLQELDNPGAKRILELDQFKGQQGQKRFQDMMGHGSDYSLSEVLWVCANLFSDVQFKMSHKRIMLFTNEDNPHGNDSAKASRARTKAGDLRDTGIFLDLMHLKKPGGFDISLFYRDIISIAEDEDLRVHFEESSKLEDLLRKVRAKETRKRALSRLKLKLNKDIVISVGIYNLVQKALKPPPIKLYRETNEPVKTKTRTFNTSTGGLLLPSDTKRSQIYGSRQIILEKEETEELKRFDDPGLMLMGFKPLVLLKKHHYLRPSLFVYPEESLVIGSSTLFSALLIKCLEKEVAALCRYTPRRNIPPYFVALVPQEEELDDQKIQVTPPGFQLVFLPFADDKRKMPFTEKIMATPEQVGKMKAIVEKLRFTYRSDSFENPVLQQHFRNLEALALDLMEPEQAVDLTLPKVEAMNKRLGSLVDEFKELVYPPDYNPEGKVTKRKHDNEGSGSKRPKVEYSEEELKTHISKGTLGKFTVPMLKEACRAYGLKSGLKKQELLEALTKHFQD
# T1 sequence (P13010 whole entry): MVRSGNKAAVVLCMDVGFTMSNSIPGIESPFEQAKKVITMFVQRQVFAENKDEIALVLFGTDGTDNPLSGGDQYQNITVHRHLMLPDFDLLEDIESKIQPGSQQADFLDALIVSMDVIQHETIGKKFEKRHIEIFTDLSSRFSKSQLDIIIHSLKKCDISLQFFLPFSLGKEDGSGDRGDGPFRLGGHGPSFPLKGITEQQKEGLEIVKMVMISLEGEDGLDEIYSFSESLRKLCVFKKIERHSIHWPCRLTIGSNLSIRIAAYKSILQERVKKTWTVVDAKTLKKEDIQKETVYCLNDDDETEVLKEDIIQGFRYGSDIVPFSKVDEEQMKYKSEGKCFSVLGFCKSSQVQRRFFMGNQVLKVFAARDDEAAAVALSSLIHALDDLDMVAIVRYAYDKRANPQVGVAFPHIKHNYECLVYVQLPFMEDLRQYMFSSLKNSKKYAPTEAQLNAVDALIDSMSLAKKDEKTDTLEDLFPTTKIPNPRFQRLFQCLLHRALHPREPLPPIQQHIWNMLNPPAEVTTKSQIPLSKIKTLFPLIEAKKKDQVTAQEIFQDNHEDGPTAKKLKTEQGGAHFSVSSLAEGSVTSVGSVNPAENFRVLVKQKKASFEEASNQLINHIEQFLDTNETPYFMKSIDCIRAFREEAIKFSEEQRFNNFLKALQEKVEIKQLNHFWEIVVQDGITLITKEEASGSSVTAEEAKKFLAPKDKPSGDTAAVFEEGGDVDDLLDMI
row,pIC50,SMILES
1,~4.12,"CC1=NN(c2cccc(C(=O)O)c2)C(=O)/C1=C\c1ccc(-c2ccc(Cl)c(C(=O)O)c2)o1 [X80, (Z)-5-(5-((1-(3-Carboxyphenyl)-3-methyl-5-oxo-1H-pyrazol-4(5H)-ylidene)methyl)furan-2-yl)-2-chlorobenzoic acid]"

# Same assay, conditions: Table 1, purchased second generation inhibitors; several values in a cell = separate determinations; read-out: IC50
row,pIC50,SMILES
1,5.21 and 5.30,"C=CCOC(=O)c1cccc(-c2ccc(/C=C3\C(=O)N(c4ccc(Cl)c(C(=O)O)c4)N=C3C)o2)c1 [compound 2922, reference compound]"
2,4.89 and 5.15 and 5.05,"CC1=NN(c2cccc(C(=O)O)c2)C(=O)/C1=C\c1ccc(-c2cc([N+](=O)[O-])ccc2C)o1 [compound 0302, reference compound]"
3,4.40 and 4.80,"COC(=O)c1cccc(-c2ccc(/C=C3\C(=O)N(c4cccc(C(=O)O)c4)N=C3C(F)(F)F)o2)c1 [compound 2777, reference compound]"
4,4.04,"CC1=NN(c2cccc(C(=O)O)c2)C(=O)/C1=C\c1ccc(-c2ccccc2C(=O)O)o1 [compound 0949, reference compound]"
5,4.96 and 5.46,"CC1=NN(c2cccc(C(=O)O)c2)C(=O)/C1=C\c1ccc(-c2cccc(C(=O)OC(C)C)c2)o1 [compound 3125, reference compound]"
6,4.68 and 5.15,"CC1=NN(c2cccc(C(=O)O)c2)C(=O)/C1=C\c1ccc(-c2cc([N+](=O)[O-])ccc2O)o1 [compound 1564, reference compound]"
7,4.68 and 4.72,"CC1=NN(c2ccc(Cl)c(C(=O)O)c2)C(=O)/C1=C\c1ccc(-c2ccc([N+](=O)[O-])cc2Br)o1 [compound 0277, reference compound]"
8,3.72,"COc1cc([N+](=O)[O-])ccc1-c1ccc(/C=C2\C(=O)N(c3cccc(C(=O)O)c3)N=C2C)o1 [compound 0814, reference compound]"
9,4.66,"CC1=NN(c2ccc(Cl)c(C(=O)O)c2)C(=O)/C1=C\c1ccc(-c2ccc3c(c2)C(=O)OC3)o1 [compound 4770, reference compound]"
10,4.51 and 5.24,"CC1=NN(c2ccc(Cl)c(C(=O)O)c2)C(=O)/C1=C\c1ccc(-c2cccc(C(=O)OC(C)C)c2)o1 [compound 3315, reference compound]"
11,3.82,"CC1=NN(c2cccc(C(=O)O)c2)C(=O)/C1=C\c1ccc(-c2ccc(C(=O)O)cc2)o1 [compound 2513, reference compound]"
12,4.19,"CC1=NN(c2cccc(C(=O)O)c2)C(=O)/C1=C\c1ccc(-c2cccc(C(=O)O)c2)o1 [compound 0803, reference compound]"
13,4.77,"C#CCOC(=O)c1cccc(-c2ccc(/C=C3\C(=O)N(c4ccc(Cl)c(C(=O)O)c4)N=C3C)o2)c1 [compound 7026, reference compound]"
14,5.54,"CC1=NN(c2cccc(C(=O)O)c2)C(=O)/C1=C\c1ccc(-c2ccc(Cl)c(C(=O)OCc3ccccc3Cl)c2)o1 [compound 2249, reference compound]"
15,5.37 and 5.09,"CCOC(=O)c1cccc(-c2ccc(/C=C3\C(=O)N(c4ccc(Cl)c(C(=O)O)c4)N=C3C)o2)c1 [compound 3278, reference compound]"
16,4.49 and 4.80 and 4.40,"CC1=NN(c2cccc(C(=O)O)c2)C(=O)/C1=C\c1ccc(-c2ccc3c(c2)C(=O)OC3)o1 [compound 7997, reference compound]"
17,5.04,"CCOC(=O)c1cccc(-c2ccc(/C=C3\C(=O)N(c4cccc(C(=O)O)c4)N=C3C)o2)c1 [compound 2714, reference compound]"

# Same assay, conditions: Table 2, synthesized derivatives; several values in a cell = separate determinations; read-out: IC50
row,pIC50,SMILES
1,5.52,"CCOC(=O)c1cccc(N2N=C(C)C(Cc3ccc(-c4ccc(Cl)c(C(=O)Nc5cccc(OC)c5)c4)o3)C2=O)c1 (stereo not shown) [NG-02-131, Ethyl 3-(4-((5-(4-chloro-3-((3-methoxyphenyl)carbamoyl)phenyl)furan-2-yl)methyl)-3-methyl-5-oxo-4,5-dihydro-1H-pyrazol-1-yl)benzoate]"
2,4.74,"COc1cccc(NC(=O)c2cc(-c3ccc(/C=C4\C(=O)N(c5cccc(C(=O)O)c5)N=C4C)s3)ccc2Cl)c1 [NG-03-203, (Z)-3-(4-((5-(4-chloro-3-((3-methoxyphenyl)carbamoyl)phenyl)thiophen-2-yl)methylene)-3-methyl-5-oxo-4,5-dihydro-1H-pyrazol-1-yl)benzoic acid]"
3,5.35 and 5.19,"COc1cccc(NC(=O)c2cc(-c3ccc(/C=C4\C(=O)N(c5cccc(-c6nnn[nH]6)c5)N=C4C)o3)ccc2Cl)c1 [NG-03-201, (Z)-5-(5-((1-(3-(1H-Tetrazol-5-yl)phenyl)-3-methyl-5-oxo-1,5-dihydro-4H-pyrazol-4-ylidene)methyl)furan-2-yl)-2-chloro-N-(3-methoxyphenyl)benzamide]"
4,5.52,"CCOC(=O)c1cccc(N2N=C(C)/C(=C/c3ccc(-c4ccc(Cl)c(C(=O)Nc5cccc(OC)c5)c4)o3)C2=O)c1 [NG-02-130, (Z)-Ethyl 3-(4-((5-(4-chloro-3-((3-methoxyphenyl)carbamoyl)phenyl)furan-2-yl)methylene)-3-methyl-5-oxo-4,5-dihydro-1H-pyrazol-1-yl)benzoate]"
5,5.15,"COc1cccc(NC(=O)c2cc(-c3ccc(CC4C(=O)N(c5cccc(C(=O)O)c5)N=C4C)s3)ccc2Cl)c1 (stereo not shown) [NG-03-207, 3-(4-((5-(4-chloro-3-((3-Methoxyphenyl)carbamoyl)phenyl)thiophen-2-yl)methyl)-3-methyl-5-oxo-4,5-dihydro-1H-pyrazol-1-yl)benzoic acid]"
6,5.00,"CC1=NN(c2cccc(C(=O)O)c2)C(=O)/C1=C\c1ccc(-c2ccc(Cl)c(C(=O)NCc3ccccc3)c2)o1 [NG-03-270, (Z)-3-(4-((5-(3-(Benzylcarbamoyl)-4-chlorophenyl)furan-2-yl)methylene)-3-methyl-5-oxo-4,5-dihydro-1H-pyrazol-1-yl)benzoic acid]"
7,4.70,"COc1cccc(NC(=O)c2cc(-c3ccc(/C=C4\C(=O)N(c5ccc(S(N)(=O)=O)cc5)N=C4C)o3)ccc2Cl)c1 [NG-03-196, (Z)-2-chloro-N-(3-methoxyphenyl)-5-(5-((3-methyl-5-oxo-1-(4-sulfamoylphenyl)-1,5-dihydro-4H-pyrazol-4-ylidene)methyl)furan-2-yl)benzamide]"
8,4.90 and 5.22,"COc1cccc(NC(=O)c2cc(-c3ccc(CC4C(=O)N(c5ccc(C(=O)O)cc5)N=C4C)o3)ccc2Cl)c1 (stereo not shown) [NG-03-188, 4-(4-((5-(4-Chloro-3-((3-methoxyphenyl)carbamoyl)phenyl)furan-2-yl)methyl)-3-methyl-5-oxo-4,5-dihydro-1H-pyrazol-1-yl)benzoic acid]"
9,5.22,"CC1=NN(c2ccc(C(=O)O)cc2)C(=O)/C1=C\c1ccc(-c2ccc(Cl)c(C(=O)O)c2)s1 [NG-03-234, (Z)-5-(5-((1-(4-Carboxyphenyl)-3-methyl-5-oxo-1,5-dihydro-4H-pyrazol-4-ylidene)methyl)thiophen-2-yl)-2-chlorobenzoic acid]"
10,5.10,"CC1=NN(c2cccc(C(=O)O)c2)C(=O)C1Cc1ccc(-c2ccc(Cl)c(C(=O)NCc3ccc(F)cc3)c2)o1 (stereo not shown) [NG-01-65, 3-(4-((5-(4-Chloro-3-((4-fluorobenzyl)carbamoyl)phenyl)furan-2-yl)methyl)-3-methyl-5-oxo-4,5-dihydro-1H-pyrazol-1-yl)benzoic acid]"
11,5.15,"CC1=NN(c2cccc(C(=O)O)c2)C(=O)/C1=C\c1ccc(-c2ccc(Cl)c(C(=O)NCC3CC3)c2)s1 [NG-03-226, (Z)-3-(4-((5-(4-Chloro-3-((cyclopropylmethyl)carbamoyl)phenyl)thiophen-2-yl)methylene)-3-methyl-5-oxo-4,5-dihydro-1H-pyrazol-1-yl)benzoic acid]"
12,4.85,"COc1ccc(NC(=O)c2cc(-c3ccc(/C=C4\C(=O)N(c5cccc(C(=O)O)c5)N=C4C)o3)ccc2Cl)cc1OC [NG-03-189, (Z)-3-(4-((5-(4-chloro-3-((3,4-dimethoxyphenyl)carbamoyl)phenyl)furan-2-yl)methylene)-3-methyl-5-oxo-4,5-dihydro-1H-pyrazol-1-yl)benzoic acid]"
13,5.10 and 4.96,"COc1cccc(NC(=O)c2ccc(/C=C3\C(=O)N(c4cccc(C(=O)O)c4)N=C3C)o2)c1 [NG-02-162/ NG-02-162C, (Z)-3-(4-((5-((3-methoxyphenyl)carbamoyl)furan-2-yl)methylene)-3-methyl-5-oxo-4,5-dihydro-1H-pyrazol-1-yl)benzoic acid]"
14,5.00,"COc1cccc(NC(=O)c2cc(-c3ccc(/C=C4\C(=O)N(c5ccc(C(=O)O)cc5)N=C4C)s3)ccc2Cl)c1 [NG-03-236, (Z)-4-(4-((5-(4-Chloro-3-((3-methoxyphenyl)carbamoyl)phenyl)thiophen-2-yl)methylene)-3-methyl-5-oxo-4,5-dihydro-1H-pyrazol-1-yl)benzoic acid]"
15,4.82,"CC1=NN(c2cccc(C(=O)O)c2)C(=O)/C1=C\c1ccc(-c2ccc(Cl)c(C(=O)O)c2)s1 [NG-03-224, (Z)-5-(5-((1-(3-Carboxyphenyl)-3-methyl-5-oxo-1,5-dihydro-4H-pyrazol-4-ylidene)methyl)thiophen-2-yl)-2-chlorobenzoic acid]"
16,4.85,"COc1cccc(NC(=O)c2cc(-c3ccc(CC4C(=O)N(c5ccc(C(=O)O)cc5)N=C4C)s3)ccc2Cl)c1 (stereo not shown) [NG-03-238, 4-(4-((5-(4-Chloro-3-((3-methoxyphenyl)carbamoyl)phenyl)thiophen-2-yl)methyl)-3-methyl-5-oxo-4,5-dihydro-1H-pyrazol-1-yl)benzoic acid]"
17,4.60 and < 4.30,"CC1=NN(c2cccc(C(=O)O)c2)C(=O)/C1=C\c1ccc(-c2ccc(Cl)c(C(=O)NCC3CC3)c2)o1 [NG-01-70, (Z)-3-(4-((5-(4-Chloro-3-((cyclopropylmethyl)carbamoyl)phenyl)furan-2-yl)methylene)-3-methyl-5-oxo-4,5-dihydro-1H-pyrazol-1-yl)benzoic acid]"
18,5.40,COc1cccc(NC(=O)c2cc(-c3ccc(/C=C4\C(=O)N(c5cccc(-c6nnn[nH]6)c5)N=C4C)o3)ccc2Cl)c1 [NG-02-201/ NG-03-244]
19,4.96,"COc1cccc(NC(=O)c2ccc(CC3C(=O)N(c4cccc(C(=O)O)c4)N=C3C)o2)c1 (stereo not shown) [NG-02-165, 3-(4-((5-((3-Methoxyphenyl)carbamoyl)furan-2-yl)methyl)-3-methyl-5-oxo-4,5-dihydro-1H-pyrazol-1-yl)benzoic acid]"

# — patent US11098033B2, “Ku inhibitors and their use” (INDIANA UNIVERSITY RESEARCH AND TECHNOLOGY CORPORATION, priority 2016, dated 2021)
